Measurements reported in ChEMBL document CHEMBL4371054, “Dual inhibition of Kif15 by oxindole and quinazolinedione chemical probes” (Bioorg Med Chem Lett, 2019).
Active and inactive are the calls of the source. The calls are words filed in the database; no cut-off is given here.

What was measured:
[1] = target: T1, Kinesin-like protein KIF15 (Homo sapiens) (UniProt Q9NS87); assay: Inhibition of recombinant His6-tagged Kif15 (N700 residues) (unknown origin) expressed in HeLa cells assessed as reduction in Alexa-594 labelled microtubule gliding at 750 nM measured every 2 secs for 20 secs by epifluorescence microscopic analysis (reference value: 1%); format: cell-based
T1 sequence (whole entry): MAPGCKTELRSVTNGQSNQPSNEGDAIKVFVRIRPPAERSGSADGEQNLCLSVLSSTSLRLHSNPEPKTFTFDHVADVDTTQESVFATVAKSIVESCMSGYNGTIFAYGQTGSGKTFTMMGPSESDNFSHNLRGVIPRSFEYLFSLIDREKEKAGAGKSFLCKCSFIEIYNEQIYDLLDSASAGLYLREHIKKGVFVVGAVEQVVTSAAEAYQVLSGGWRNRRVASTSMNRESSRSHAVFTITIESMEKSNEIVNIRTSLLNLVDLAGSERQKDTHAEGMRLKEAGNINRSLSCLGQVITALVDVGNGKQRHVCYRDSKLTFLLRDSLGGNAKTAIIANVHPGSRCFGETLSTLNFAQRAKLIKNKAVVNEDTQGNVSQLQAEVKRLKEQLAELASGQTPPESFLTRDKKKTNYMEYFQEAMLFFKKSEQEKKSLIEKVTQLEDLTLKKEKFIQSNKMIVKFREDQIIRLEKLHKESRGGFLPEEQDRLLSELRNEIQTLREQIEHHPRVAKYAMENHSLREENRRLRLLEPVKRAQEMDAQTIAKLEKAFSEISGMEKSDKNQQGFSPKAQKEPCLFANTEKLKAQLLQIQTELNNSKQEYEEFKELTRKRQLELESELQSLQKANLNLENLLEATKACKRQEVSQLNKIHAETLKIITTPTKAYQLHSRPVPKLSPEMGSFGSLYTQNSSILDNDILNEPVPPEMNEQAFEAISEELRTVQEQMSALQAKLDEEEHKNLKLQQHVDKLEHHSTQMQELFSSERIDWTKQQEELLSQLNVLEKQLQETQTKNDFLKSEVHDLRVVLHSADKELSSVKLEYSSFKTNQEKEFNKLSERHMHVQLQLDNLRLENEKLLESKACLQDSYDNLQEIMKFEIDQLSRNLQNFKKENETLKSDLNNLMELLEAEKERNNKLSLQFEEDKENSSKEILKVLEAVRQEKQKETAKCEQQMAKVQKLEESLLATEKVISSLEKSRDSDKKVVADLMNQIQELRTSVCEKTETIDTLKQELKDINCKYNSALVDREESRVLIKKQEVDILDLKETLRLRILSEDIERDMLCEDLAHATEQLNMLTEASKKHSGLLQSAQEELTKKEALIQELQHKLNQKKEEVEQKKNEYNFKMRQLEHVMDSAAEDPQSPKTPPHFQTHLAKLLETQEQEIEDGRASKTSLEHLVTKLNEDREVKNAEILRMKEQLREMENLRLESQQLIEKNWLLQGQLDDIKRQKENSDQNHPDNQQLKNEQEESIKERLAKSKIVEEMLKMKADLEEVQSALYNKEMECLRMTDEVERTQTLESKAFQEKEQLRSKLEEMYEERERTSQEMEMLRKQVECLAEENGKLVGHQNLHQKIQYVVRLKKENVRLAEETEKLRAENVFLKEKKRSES

[2] = target: T1, Kinesin-like protein KIF15 (Homo sapiens); assay: Inhibition of recombinant His6-tagged Kif15 ATPase activity (N420 residues) (unknown origin) expressed in HeLa cells at 10 uM using microtubule as substrate preincubated for 15 mins followed by ATP addition and measured after 20 mins by ADP-Glo luminescence assay relative to control
[3] = target: T2, Kinesin-like protein KIF15 (Homo sapiens, UniProt Q9NS87); assay: Inhibition of recombinant His6-tagged Kif15 ATPase activity (N420 residues) (unknown origin) expressed in HeLa cells using microtubule as substrate preincubated for 15 mins followed by ATP addition and measured after 20 mins by ADP-Glo luminescence assay
T2 sequence (Q9NS87 whole entry): T1 sequence (whole entry)

[4] = target: T2, Kinesin-like protein KIF15; assay: (§1) Inhibition of recombinant His6-tagged Kif15 (N700 residues) (unknown origin) expressed in HeLa cells assessed as reduction in Alexa-594 labelled microtubule gliding measured every 2 secs for 20 secs by epifluorescence microscopic analysis; format: cell-based
[5] = target: T1, Kinesin-like protein KIF15 (Homo sapiens); assay: as §1, with “Reversible inhibition” for “Inhibition”, “gliding at 10 uM treated for 1 min followed by compound washout and” for “gliding”, “1 min” for “20 secs”; format: cell-based
[6] = target: T1, Kinesin-like protein KIF15 (Homo sapiens); assay: Inhibition of Kif15 in TP53-deficient human RPE1 cells assessed as cells with bipolar pre-anaphase microtubule structure at 25 uM after 24 hrs by Hoechst 33342 staining based immunofluorescence microscopic analysis (reference value: 90 to 94%); set-up: scale not given: the % may be the effect or the level left
[7] = target: T1, Kinesin-like protein KIF15 (Homo sapiens); assay: Inhibition of Kif15 in TP53-deficient human RPE1 cells assessed as reduction in spindle-bound Kif15 level at 25 uM after 24 hrs by Hoechst 33342 staining based immunofluorescence microscopic analysis relative to control
[8] = target: T1, Kinesin-like protein KIF15 (Homo sapiens); assay: Inhibition of Kif15 in TP53-deficient human RPE1 cells assessed as reduction in Kif15 level at 25 uM after 24 hrs by Western blot analysis relative to control
[9] = target: T1, Kinesin-like protein KIF15 (Homo sapiens); assay: Inhibition of Kif15 in TP53-deficient human RPE1 cells assessed as effect on spindle length at 25 uM after 24 hrs by Hoechst 33342 staining based immunofluorescence microscopic analysis (reference value: 11.4 +/- 0.2 um)
[10] = target: T1, Kinesin-like protein KIF15 (Homo sapiens); assay: Inhibition of Kif15 in K51-resistant human KIRC1 cells assessed as cells with monopolar spindles at 25 uM after 24 hrs by Hoechst 33342 staining based immunofluorescence microscopic analysis (reference value: 43 to 49%); set-up: scale not given: the % may be the effect or the level left
[11] = target: T2, Kinesin-like protein KIF15; assay: Inhibition of recombinant C-terminal truncated His6-tagged Kif15 (N700 residues) (unknown origin) expressed in Escherichia coli BL21 (DE3) assessed as reduction in microtubule gliding measured up to 2 mins
[12] = target: T1, Kinesin-like protein KIF15 (Homo sapiens); assay: ATP competitive inhibition of recombinant His6-tagged Kif15 ATPase activity (N700 residues) (unknown origin) expressed in HeLa cells at 5 uM using microtubule as substrate preincubated for 30 mins followed by varying levels of ATP addition by double reciprocal Lineweaver-Burk plot analysis

| inhibition [1] | SMILES | further results |
| --- | --- | --- |
| 38% | O=C1Nc2ccc(C(=O)c3ccco3)cc2/C1=C/c1cc(F)c(O)c(Br)c1 | – |
| 4.8% | O=C1Nc2ccc(I)cc2/C1=C/c1cc(F)c(O)c(F)c1 | – |
| 33% | O=C1Nc2ccc(-c3ccco3)cc2/C1=C/c1cc(Cl)c(O)c(Cl)c1 | – |
| 2.3% | COc1ccc(/C=C2\C(=O)Nc3ccc(C(=O)c4ccco4)cc32)cc1Br | – |
| 15% | O=C1Nc2ccc(I)cc2/C1=C/c1cc(Cl)c(O)c(Cl)c1 | – |
| – | O=C1Nc2ccc(I)cc2/C1=C/c1cc(Br)c(O)c(Br)c1 | inhibition [2]: 90%; IC50 [3]: 2500 nM |
| 23% | O=C1Nc2ccc(C(=O)c3ccco3)cc2/C1=C/c1ccc(O)c(Br)c1 | – |
| 65% | O=C1Nc2ccc(C(=O)c3ccco3)cc2/C1=C/c1cc(Br)c(O)c(Br)c1 | – |
| 15.3% | CN(C)C(=O)c1ccc2c(c1)/C(=C/c1cc(Cl)c(O)c(Cl)c1)C(=O)N2 | – |
| 21% | O=C1Nc2ccc(C(=O)c3ccco3)cc2/C1=C/c1cc(F)c(O)c(F)c1 | – |
| -5.6% | O=C1Nc2ccc(C(=O)c3ccco3)cc2/C1=C/c1ccc(Br)c(O)c1 | – |
| – | CCOC(=O)c1sc(NC(=O)[C@H](C(C)C)n2c(=O)[nH]c3ccccc3c2=O)nc1C | IC50 [4]: 200 nM; inhibition [5]: Active; Activity [6]: 96%; inhibition [7]: inactive; inhibition [8]: 15%; Activity [9]: 9.9 µm; Activity [10]: 84%; IC50 [11]: 1720 nM; inhibition [12]: Active |
| 16% | O=C1Nc2ccc(C(=O)c3ccco3)cc2/C1=C/c1cc(Br)cc(Br)c1 | – |
| 26.5% | O=C1Nc2ccc(C(=O)c3ccco3)cc2/C1=C/c1ccc(O)nc1 | – |
| 8.21% | O=C1Nc2ccc(C(=O)c3ccco3)cc2/C1=C/c1cccc(O)c1 | – |
| 9% | Cc1cc(/C=C2\C(=O)Nc3ccc(C(=O)c4ccco4)cc32)cc(C)c1O | – |
| 7.3% | O=C1Nc2ccc(-c3ccccn3)cc2/C1=C/c1cc(Cl)c(O)c(Cl)c1 | – |
| -10% | O=C1Nc2ccc(C(=O)N3CCCC3)cc2/C1=C/c1cc(Cl)c(O)c(Cl)c1 | – |
| 15.8% | O=C1Nc2ccc(C(=O)c3ccco3)cc2/C1=C/c1ccnc(Cl)c1 | – |
| -5.8% | O=C1Nc2ccc(-c3cccc(F)c3)cc2/C1=C/c1cc(Cl)c(O)c(Cl)c1 | – |
| -3.5% | COc1cc(/C=C2\C(=O)Nc3ccc(C(=O)c4ccco4)cc32)cc(Cl)c1O | – |
| 0.8% | O=C1Nc2ccc(C(=O)c3ccco3)cc2/C1=C/c1ccncc1 | – |
| 62% | O=C1Nc2ccc(C(=O)c3ccco3)cc2/C1=C/c1cc(Cl)c(O)c(Br)c1 | – |
| 26% | O=C1Nc2ccc(C(=O)c3ccco3)cc2/C1=C/c1cc(I)c(O)c(I)c1 | – |
| 9.5% | O=C1Nc2ccc(C(=O)c3ccco3)cc2/C1=C/c1ccc(O)c(C(F)(F)F)c1 | – |
